Results as given in US12187684B2, “Benzimidazole derivatives as modulators of retinoid-related orphan receptor gamma (RORγ) and pharmaceutical use thereof” (Jiangsu Hengrui Medicine Co., Ltd., priority 2018, dated 2025).

target: T1, RORγ LBD-GST tagged (Homo sapiens, UniProt P51449); test: LanthaScreen TR-FRET RORγ coactivator assay; assay type: biochemical; conditions: Fluorescein-D22 coactivator peptide, 1 hour room temperature
T1 construct: RORγ LBD-GST tagged (Cat No. RORC-114H, Creative Biomart); purchased Creative Biomart RORC-114H
T1 sequence (P51449 269-508 limits assumed): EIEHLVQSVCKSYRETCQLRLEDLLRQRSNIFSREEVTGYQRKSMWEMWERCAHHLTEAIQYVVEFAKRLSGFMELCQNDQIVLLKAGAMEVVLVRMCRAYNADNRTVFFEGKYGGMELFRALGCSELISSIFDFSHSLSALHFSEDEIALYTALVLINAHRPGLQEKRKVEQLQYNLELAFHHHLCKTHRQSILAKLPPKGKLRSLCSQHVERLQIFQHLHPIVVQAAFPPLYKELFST
Source text: LanthaScreen TR-FRET Retinoid-Related Orphan Receptor Gamma (RORγ) Coactivator Assay Materials and Reagents • 1. […] Fluorescein-D22 coactivator peptide (Cat No. PV4386, Invitrogen) • 3. LanthaScreen™ Tb anti-GST antibody (Cat No. PV3550, Invitrogen) • 4. TR-FRET coregulatory buffer D (Cat No, PV4420, Invitrogen) • 5. DTT (Cat No. P2325, Fisher) • 6. […] Tecan Infinite M1000 plate reader (Tecan) Experimental Procedure Prepare Complete TR-FRET Coregulator Buffer D by adding 1 M DTT to TR-FRET Coregulator Buffer D to the final concentration of 5 mM DTT. Make compound dilution in Complete TR-FRET Coregulator Buffer D. Highest dose is 3 μM, 7-folder dilution for total 7 doses. Add 10 μL to each well of a 384-well plate. For the negative and positive controls, add 10 μL of Complete TR-FRET Coregulator Buffer D. Prepare RORγ LBD using Complete TR-FRET Coregulator Buffer D. The final concentration of RORγ LBD is 25 ng/reaction. Add 5 μL RORγ LBD to all the wells of the 384-well assay plate except negative wells which adding 5 μL Complete TR-FRET Coregulator Buffer D. Prepare a solution containing 0.6 μM Fluorescein-D22 and 8 nM Tb anti-GST antibody using Complete TR-FRET Coregulator Buffer D. Add 5 μL to all wells of the 384-well assay plate. Briefly and gently mix the 384-well plate on a plate shaker and incubate at room temperature protected from light for 1 hour. The plate may be sealed with a cover to minimize evaporation. Read the plate at wavelengths of 520 nm and 495 nm on Tecan Infinite M1000. IC50 values were calculated using GraphPad Prism by plotting the logarithm of compounds concentration versus percent inhibition.

Row | Structure (SMILES) | IC50 [µM]
1 | O=S(=O)(CC1CC1)c1ccc(C(O)c2nc3c(Cl)c(-c4ccccc4F)c(Cl)cc3[nH]2)cc1 (stereo not shown) [Example 75, (4-((cyclopropylmethyl)sulfonyl)phenyl)(4,6-dichloro-5-(2-fluorophenyl)-1H-benzo[d]imidazol-2-yl)methanol] | 0.006
2 | CCS(=O)(=O)c1ccc(Cc2nc3c(Cl)c(-c4ccccc4OC(F)(F)F)c(Cl)cc3[nH]2)c(F)c1 [Example 76, 4,6-dichloro-2-(4-(ethylsulfonyl)-2-fluorobenzyl)-5-(2-(trifluoromethoxy)phenyl)-1H-benzo[d]imidazole] | 0.387
3 | CCS(=O)(=O)c1ccc(C(O)c2nc3c(Cl)c(-c4ccccc4C(F)(F)F)c(Cl)cc3[nH]2)c(F)c1 (stereo not shown) [Example 79, (4,6-dichloro-5-(2-(trifluoromethyl)phenyl)-1H-benzo[d]imidazol-2-yl)(4-(ethylsulfonyl)-2-fluorophenyl)methanol] | 0.048
4 | CCS(=O)(=O)c1ccc(Cc2nc3c(Cl)c(-c4ccccc4OC(F)F)c(Cl)cc3[nH]2)c(F)c1 [Example 83, 4,6-dichloro-5-(2-(difluoromethoxy)phenyl)-2-(4-(ethylsulfonyl)-2-fluorobenzyl)-1H-benzo[d]imidazole] | 0.065
5 | CCS(=O)(=O)c1ccc(C(O)c2nc3c(Cl)c(-c4ccccc4OC(F)F)c(Cl)cc3[nH]2)c(F)c1 (stereo not shown) [Example 85, (4,6-dichloro-5-(2-(difluoromethoxy)phenyl)-1H-benzo[d]imidazol-2-yl)(4-(ethylsulfonyl)-2-fluorophenyl)methanol] | 0.188
6 | CCS(=O)(=O)c1ccc(Cc2nc3c(Cl)c(-c4ccccc4OC(F)F)c(Cl)cc3[nH]2)c(Cl)c1 [Example 89, 4,6-dichloro-2-(2-chloro-4-(ethylsulfonyl)benzyl)-5-(2-(difluoromethoxy)phenyl)-1H-benzo[d]imidazole] | 0.004
7 | O=S(=O)(CC1CC1)c1ccc(Cc2nc3c(Cl)c(-c4ccccc4Cl)c(Cl)cc3[nH]2)cc1 [Example 93, 4,6-dichloro-5-(2-chlorophenyl)-2-(4-((cyclopropylmethyl)sulfonyl)benzyl)-1H-benzo[d]imidazole] | 0.075
8 | O=S(=O)(CC1CC1)c1ccc(C(O)c2nc3c(Cl)c(-c4ccccc4Cl)c(Cl)cc3[nH]2)cc1 (stereo not shown) [Example 94, (4-((cyclopropylmethyl)sulfonyl)phenyl)(4,6-dichloro-5-(2-chlorophenyl)-1H-benzo[d]imidazol-2-yl)methanol] | 0.023
9 | N#Cc1ccccc1-c1c(Cl)cc2[nH]c(Cc3ccc(S(=O)(=O)CC4CC4)cc3)nc2c1Cl [Example 95, 2-(4,6-dichloro-2-(4-((cyclopropylmethyl)sulfonyl)benzyl)-1H-benzo[d]imidazol-5-yl)benzonitrile] | 0.065
10 | N#Cc1ccccc1-c1c(Cl)cc2[nH]c(C(CO)c3ccc(S(=O)(=O)CC4CC4)cc3)nc2c1Cl (stereo not shown) [Example 96, 2-(4,6-dichloro-2-(1-(4-((cyclopropylmethyl)sulfonyl)phenyl)-2-hydroxyethyl)-1H-benzo[d]imidazol-5-yl)benzonitrile] | 0.123
11 | N#Cc1ccccc1-c1c(Cl)cc2[nH]c(C(O)c3ccc(S(=O)(=O)CC4CC4)cc3)nc2c1Cl (stereo not shown) [Example 97, 2-(4,6-dichloro-2-((4-((cyclopropylmethyl)sulfonyl)phenyl)(hydroxy)methyl)-1H-benzo[d]imidazol-5-yl)benzonitrile] | 0.001
12 | O=S(=O)(CC1CC1)c1ccc(Cc2nc3c(Cl)c(-c4ccccc4OC(F)F)c(Cl)cc3[nH]2)c(F)c1 [Example 98, 4,6-dichloro-2-(4-((cyclopropylmethyl)sulfonyl)-2-fluorobenzyl)-5-(2-(difluoromethoxy)phenyl)-1H-benzo[d]imidazole] | 0.007
13 | CS(=O)(=O)c1ccc(Cc2nc3c(Cl)c(-c4ccccc4OC(F)(F)F)c(Cl)cc3[nH]2)c(Cl)c1 [Example 101, 4,6-dichloro-2-(2-chloro-4-(methylsulfonyl)benzyl)-5-(2-(trifluoromethoxy)phenyl)-1H-benzo[d]imidazole] | 0.082
14 | CC(C)S(=O)(=O)c1ccc(Cc2nc3c(Cl)c(-c4ccccc4OC(F)(F)F)c(Cl)cc3[nH]2)cc1 [Example 104] | 0.337
15 | CC(C)S(=O)(=O)c1ccc(C(O)c2nc3c(Cl)c(-c4ccccc4OC(F)(F)F)c(Cl)cc3[nH]2)cc1 (stereo not shown) [Example 106, (4-((iso-propyl)sulfonyl)phenyl)(4,6-dichloro-5-(2-(trifluoromethoxy)phenyl)-1H-benzo[d]imidazol-2-yl)methanol] | 0.003
16 | CC(C)S(=O)(=O)c1ccc(C(CO)c2nc3c(Cl)c(-c4ccccc4C(F)(F)F)c(Cl)cc3[nH]2)cc1 (stereo not shown) [Example 107] | 0.055
17 | CCS(=O)(=O)c1ccc(Cc2nc3c(F)c(-c4ccccc4OC(F)(F)F)c(F)cc3[nH]2)cc1 [Example 108, 2-(4-(ethylsulfonyl)benzyl)-4,6-difluoro-5-(2-(trifluoromethoxy)phenyl)-1H-benzo[d]imidazole] | 0.032
18 | CCS(=O)(=O)c1ccc(C(CO)c2nc3c(F)c(-c4ccccc4OC(F)(F)F)c(F)cc3[nH]2)cc1 (stereo not shown) [Example 109, 2-(4,6-difluoro-5-(2-(trifluoromethoxy)phenyl)-1H-benzo[d]imidazol-2-yl)-2-(4-(ethylsulfonyl)phenyl)ethanol] | 1.04
19 | CCS(=O)(=O)c1ccc(C(O)c2nc3c(F)c(-c4ccccc4OC(F)(F)F)c(F)cc3[nH]2)cc1 (stereo not shown) [Example 110, (4,6-difluoro-5-(2-(trifluoromethoxy)phenyl)-1H-benzo[d]imidazol-2-yl)(4-(ethylsulfonyl)phenyl)methanol] | 0.698
20 | CCS(=O)(=O)c1ccc(Cc2nc3c(F)c(-c4ccccc4C(F)(F)F)c(F)cc3[nH]2)cc1 [Example 111, 2-(4-(ethylsulfonyl)benzyl)-4,6-difluoro-5-(2-(trifluoromethyl)phenyl)-1H-benzo[d]imidazole] | 0.06

Now from value to compound:

Row | IC50 [µM] | Structure (SMILES)
21 | 0.046 | O=S(=O)(CC1CC1)c1ccc(C(O)c2nc3c(Cl)c(-c4ccccc4OC(F)(F)F)c(Cl)cc3[nH]2)c(F)c1 (stereo not shown) [Example 82, (4-((cyclopropylmethyl)sulfonyl)-2-fluorophenyl)(4,6-dichloro-5-(2-(trifluoromethoxy)phenyl)-1H-benzo[d]imidazol-2-yl)methanol]
22 | 0.024 | CCS(=O)(=O)c1ccc(C(CO)c2nc3c(Cl)c(-c4ccccc4OC(F)(F)F)c(Cl)cc3[nH]2)c(Cl)c1 (stereo not shown) [Example 87, 2-(2-chloro-4-(ethylsulfonyl)phenyl)-2-(4,6-dichloro-5-(2-(trifluoromethoxy)phenyl)-1H-benzo[d]imidazol-2-yl)ethanol]
23 | 0.162 | CCS(=O)(=O)c1ccc(C(O)c2nc3c(Cl)c(-c4ccccc4OC(F)(F)F)c(Cl)cc3[nH]2)c(Cl)c1 (stereo not shown) [Example 88, (2-chloro-4-(ethylsulfonyl)phenyl)(4,6-dichloro-5-(2-(trifluoromethoxy)phenyl)-1H-benzo[d]imidazol-2-yl)methanol]
24 | 0.004 | O=S(=O)(CC1CC1)c1ccc(Cc2nc3c(Cl)c(-c4ccccc4OC(F)(F)F)c(Cl)cc3[nH]2)c(Cl)c1 [Example 90, 4,6-dichloro-2-(2-chloro-4-((cyclopropylmethyl)sulfonyl)benzyl)-5-(2-(trifluoromethoxy)phenyl)-1H-benzo[d]imidazole]
25 | 0.14 | O=S(=O)(CC1CC1)c1ccc(C(CO)c2nc3c(Cl)c(-c4ccccc4OC(F)(F)F)c(Cl)cc3[nH]2)c(Cl)c1 (stereo not shown) [Example 91, 2-(2-chloro-4-((cyclopropylmethyl)sulfonyl)phenyl)-2-(4,6-dichloro-5-(2-(trifluoromethoxy)phenyl)-1H-benzo[d]imidazol-2-yl)ethanol]
26 | 0.067 | O=S(=O)(CC1CC1)c1ccc(C(O)c2nc3c(Cl)c(-c4ccccc4OC(F)(F)F)c(Cl)cc3[nH]2)c(Cl)c1 (stereo not shown) [Example 92, (2-chloro-4-((cyclopropylmethyl)sulfonyl)phenyl)(4,6-dichloro-5-(2-(trifluoromethoxy)phenyl)-1H-benzo[d]imidazol-2-yl)methanol]
27 | 0.062 | CS(=O)(=O)c1ccc(C(CO)c2nc3c(Cl)c(-c4ccccc4OC(F)(F)F)c(Cl)cc3[nH]2)c(Cl)c1 (stereo not shown) [Example 102, 2-(2-chloro-4-(methylsulfonyl)phenyl)-2-(4,6-dichloro-5-(2-(trifluoromethoxy)phenyl)-1H-benzo[d]imidazol-2-yl)ethanol]
28 | 0.158 | CS(=O)(=O)c1ccc(C(O)c2nc3c(Cl)c(-c4ccccc4OC(F)(F)F)c(Cl)cc3[nH]2)c(Cl)c1 (stereo not shown) [Example 103, (2-chloro-4-(methylsulfonyl)phenyl)(4,6-dichloro-5-(2-(trifluoromethoxy)phenyl)-1H-benzo[d]imidazol-2-yl)methanol]
